“Also recorded” adds a separate entry of the source. Where two headings read alike, the source gives them in different places.
How the values were obtained:
[1] = Evans Blue Dye distribution after administration into the nose of mice; type: in vivo; design: key to Dye in Stomach / Dye in Lung: -: no dye is present; traces: minimal amounts are present when examined with the unaided eye but that do not clearly show on photographs; yes: dye is clearly visible; +: dye is clearly visible; ++: heavy dye presence; settings: for Dye in Larynx / Dye in Nasal Cavity / Dye in Nose Skin / Dye in Intestine / Dye in Oral Cavity / Dye in Stomach / Dye in Esophagus Lower / Dye in Esophagus Upper / Dye in Trachea Lower / Dye in Trachea Upper / Dye in Lung: 60 min to sacrifice
Protocol: (§1) To show the distribution of liquid administered through the nose, Evans Blue Dye (0.3%) was administered through a micropipette tip into the nose of mice and chinchillas at various doses, at various levels of sedation or anesthesia, and with the animals in various positions.

[2] = design: species or system chinchillas; settings: in vivo
Protocol: as §1

[3] = Dye 10 μl single dose, Supine/Supine, anesthesia 200 μl (heavy)
[4] = Dye 10 μl single dose, Upright/Not held, 0 μl (Alert)
[5] = Dye 10 μl single dose, Upright/Not held, anesthesia 200 μl (heavy)
[6] = Dye 20 μl single dose, Supine/Supine, anesthesia 200 μl (heavy)
[7] = Dye 20 μl single dose, Upright/Not held, anesthesia 200 μl (heavy)
[8] = Dye 20 μl, 2 μl/nare at 2 min interval, Supine/Supine, anesthesia 200 μl (heavy)
[9] = Dye 20 μl, 2 μl/nare at 5 min interval, Supine/Supine, anesthesia 200 μl (heavy)
[10] = Dye 20 μl, 2 μl/nare at t = 0, 2, 7, 9 and 11 min, Supine/Supine, anesthesia 200 μl (heavy)
[11] = Dye 30 μl single dose, Prone/Not held, 0 μl (Alert)
[12] = Dye 30 μl single dose, Supine/Supine, anesthesia 200 μl (heavy)
[13] = Dye 30 μl single dose, Upright/Not held, 0 μl (Alert)
[14] = Dye 30 μl single dose, Upright/Not held, anesthesia 120 μl (Mod)
[15] = Dye 30 μl single dose, Upright/Not held, anesthesia 200 μl (heavy)
[16] = Dye 30 μl, 1 drop/5 sec interval, Upright/Not held, anesthesia 200 μl (heavy)
[17] = Dye 30 μl, 2 μl/nare at 5 min interval, Supine/Supine, anesthesia 200 μl (Mod*)
[18] = Dye 30 μl, 2 μl/nare at 5 min interval, Supine/Supine, anesthesia 200 μl (heavy)
[19] = Dye 30 μl, 2 μl/nare at 5 min interval, Supine/Supine, anesthesia 350 μl (heavy)
[20] = Dye 30 μl, 2 μl/nare at 5 min interval, Supine/Supine, anesthesia 400 μl (heavy)
[21] = Dye 30 μl, 5 μl/nare at 10 min interval, Supine/Supine, anesthesia 200 μl (heavy)
[22] = Dye 40 μl single dose, Upright/Not held, anesthesia 200 μl (heavy)
[23] = Dye 40 μl, 2 μl/nare at 5 min interval, Supine/Supine, anesthesia 200 μl (heavy)
[24] = Dye 50 μl single dose, Upright/Not held, 0 μl (Alert)
[25] = Dye 50 μl single dose, Upright/Not held, anesthesia 120 μl (Mod)
[26] = Dye 50 μl single dose, Upright/Not held, anesthesia 200 μl (heavy)
[27] = Dye 50 μl, 5 μl/nare at 30 sec interval, Upright/Not held, anesthesia 120 μl (Mod)

Cc1cc(-c2ccc(/N=N/c3ccc4c(S(=O)(=O)[O-])cc(S(=O)(=O)[O-])c(N)c4c3O)c(C)c2)ccc1/N=N/c1ccc2c(S(=O)(=O)[O-])cc(S(=O)(=O)[O-])c(N)c2c1O.[Na+].[Na+].[Na+].[Na+] [Dye, Evans Blue Dye]
Dye in the stomach ([1]; 5 μl and 2 μl increments (Table 8)): reduced dye in the stomach at lower incremental doses than larger incremental doses
Dye in Larynx [1, 3]: Yes
Dye in Nasal Cavity [1, 3]: Yes
Dye in Nose Skin [1, 3]: Yes
Dye in Intestine [1, 4]: Yes
Dye in Larynx [1, 4]: Yes
Dye in Nasal Cavity [1, 4]: Yes
Dye in Oral Cavity [1, 4]: Yes
Dye in Stomach [1, 4]: + and Traces
Dye in Esophagus Lower [1, 5]: Traces; also recorded: Yes/Yes
Dye in Esophagus Upper [1, 5]: Traces/; also recorded: Yes/Yes
Dye in Larynx [1, 5]: Yes
Dye in Nasal Cavity [1, 5]: Yes
Dye in Nose Skin [1, 5]: Yes
Dye in Oral Cavity [1, 5]: Yes
Dye in Stomach [1, 5]: Traces and +
Dye in Trachea Lower [1, 5]: Traces
Dye in Trachea Upper [1, 5]: Traces/
Dye in Esophagus Upper [1, 6]: Traces
Dye in Larynx [1, 6]: Yes
Dye in Nasal Cavity [1, 6]: Yes
Dye in Nose Skin [1, 6]: Yes
Dye in Oral Cavity [1, 6]: Yes
Dye in Trachea Lower [1, 6]: Traces
Dye in Trachea Upper [1, 6]: Traces/
Dye in Esophagus Lower [1, 7]: Yes/Yes
Dye in Esophagus Upper [1, 7]: Yes/Yes
Dye in Larynx [1, 7]: Yes
Dye in Nasal Cavity [1, 7]: Yes
Dye in Nose Skin [1, 7]: Yes
Dye in Oral Cavity [1, 7]: Yes
Dye in Stomach [1, 7]: +
Dye in Esophagus Lower [1, 8]: Yes/Yes
Dye in Esophagus Upper [1, 8]: Yes/Yes
Dye in Larynx [1, 8]: Yes
Dye in Nasal Cavity [1, 8]: Yes
Dye in Nose Skin [1, 8]: Yes
Dye in Oral Cavity [1, 8]: Yes
Dye in Stomach [1, 8]: +
Dye in Esophagus Upper [1, 9]: Yes
Dye in Larynx [1, 9]: Yes
Dye in Nasal Cavity [1, 9]: Yes
Dye in Nose Skin [1, 9]: Yes
Dye in Oral Cavity [1, 9]: Yes
Dye in Larynx [1, 10]: Yes
Dye in Nasal Cavity [1, 10]: Yes
Dye in Nose Skin [1, 10]: Yes
Dye in Intestine [1, 11]: Yes
Dye in Larynx [1, 11]: Traces
Dye in Nasal Cavity [1, 11]: Yes
Dye in Oral Cavity [1, 11]: Traces
Dye in Stomach [1, 11]: ++ and +
Dye in Esophagus Lower [1, 12]: Yes/Yes
Dye in Esophagus Upper [1, 12]: Yes/Yes
Dye in Larynx [1, 12]: Yes
Dye in Nasal Cavity [1, 12]: Yes
Dye in Nose Skin [1, 12]: Yes
Dye in Oral Cavity [1, 12]: Yes
Dye in Trachea Lower [1, 12]: Yes/Yes
Dye in Trachea Upper [1, 12]: Yes/Yes
Dye in Intestine [1, 13]: Yes
Dye in Larynx [1, 13]: Yes
Dye in Nasal Cavity [1, 13]: Yes
Dye in Nose Skin [1, 13]: Yes
Dye in Oral Cavity [1, 13]: Yes
Dye in Stomach [1, 13]: ++ and +
Dye in Esophagus Lower [1, 14]: Yes/Yes
Dye in Esophagus Upper [1, 14]: Yes/Yes
Dye in Larynx [1, 14]: Yes
Dye in Lung [1, 14]: Traces
Dye in Nasal Cavity [1, 14]: Yes
Dye in Nose Skin [1, 14]: Yes
Dye in Oral Cavity [1, 14]: Yes
Dye in Stomach [1, 14]: ++ and +
Dye in Trachea Lower [1, 14]: Yes/Yes
Dye in Trachea Upper [1, 14]: Yes/Yes
Dye in Esophagus Lower [1, 15]: Yes/Yes
Dye in Esophagus Upper [1, 15]: Yes/Yes
Dye in Larynx [1, 15]: Yes
Dye in Lung [1, 15]: +
Dye in Nasal Cavity [1, 15]: Yes
Dye in Nose Skin [1, 15]: Yes
Dye in Oral Cavity [1, 15]: Yes
Dye in Trachea Lower [1, 15]: Yes/Yes
Dye in Trachea Upper [1, 15]: Yes/Yes
Dye in Esophagus Lower [1, 16]: Yes/Yes
Dye in Esophagus Upper [1, 16]: Yes/Yes
Dye in Larynx [1, 16]: Yes
Dye in Nasal Cavity [1, 16]: Yes
Dye in Nose Skin [1, 16]: Yes
Dye in Oral Cavity [1, 16]: Yes
Dye in Stomach [1, 16]: +
Dye in Esophagus Lower [1, 17]: Yes/Yes
Dye in Esophagus Upper [1, 17]: Yes/Yes
Dye in Larynx [1, 17]: Yes
Dye in Nasal Cavity [1, 17]: Yes
Dye in Nose Skin [1, 17]: Yes
Dye in Oral Cavity [1, 17]: Yes
Dye in Stomach [1, 17]: +
Dye in Esophagus Upper [1, 18]: Traces
Dye in Larynx [1, 18]: Yes
Dye in Nasal Cavity [1, 18]: Yes
Dye in Nose Skin [1, 18]: Yes
Dye in Oral Cavity [1, 18]: Yes
Dye in Esophagus Upper [1, 19]: Traces
Dye in Larynx [1, 19]: Yes
Dye in Nasal Cavity [1, 19]: Yes
Dye in Nose Skin [1, 19]: Yes
Dye in Oral Cavity [1, 19]: Yes
Dye in Trachea Upper [1, 19]: Traces
Dye in Larynx [1, 20]: Yes
Dye in Nasal Cavity [1, 20]: Yes
Dye in Nose Skin [1, 20]: Yes
Dye in Oral Cavity [1, 20]: Yes
Dye in Esophagus Lower [1, 21]: Yes/Yes
Dye in Esophagus Upper [1, 21]: Yes/Yes
Dye in Larynx [1, 21]: Yes
Dye in Lung [1, 21]: + and Traces
Dye in Nasal Cavity [1, 21]: Yes
Dye in Nose Skin [1, 21]: Yes
Dye in Stomach [1, 21]: +
Dye in Trachea Lower [1, 21]: Yes/Yes
Dye in Trachea Upper [1, 21]: Yes/Yes
Dye in Esophagus Lower [1, 22]: Yes/Yes
Dye in Esophagus Upper [1, 22]: Yes/Yes
Dye in Intestine [1, 22]: Yes
Dye in Larynx [1, 22]: Yes
Dye in Lung [1, 22]: +
Dye in Nasal Cavity [1, 22]: Yes
Dye in Nose Skin [1, 22]: Yes
Dye in Oral Cavity [1, 22]: Yes
Dye in Stomach [1, 22]: +
Dye in Trachea Lower [1, 22]: Yes/Yes
Dye in Trachea Upper [1, 22]: Yes/Yes
Dye in Esophagus Lower [1, 23]: Yes/Yes
Dye in Esophagus Upper [1, 23]: Yes/Yes
Dye in Larynx [1, 23]: Yes
Dye in Nasal Cavity [1, 23]: Yes
Dye in Nose Skin [1, 23]: Yes
Dye in Oral Cavity [1, 23]: Yes
Dye in Stomach [1, 23]: ++
Dye in Esophagus Lower [1, 24]: Traces
Dye in Esophagus Upper [1, 24]: Traces/
Dye in Intestine [1, 24]: Yes
Dye in Larynx [1, 24]: Yes
Dye in Nasal Cavity [1, 24]: Yes
Dye in Nose Skin [1, 24]: Yes
Dye in Oral Cavity [1, 24]: Yes
Dye in Stomach [1, 24]: ++ and +
Dye in Esophagus Lower [1, 25]: Yes/Yes
Dye in Esophagus Upper [1, 25]: Yes/Yes
Dye in Larynx [1, 25]: Yes
Dye in Nasal Cavity [1, 25]: Yes
Dye in Nose Skin [1, 25]: Yes
Dye in Oral Cavity [1, 25]: Yes
Dye in Stomach [1, 25]: ++
Dye in Trachea Lower [1, 25]: Yes/Yes; also recorded: Traces
Dye in Trachea Upper [1, 25]: Yes/Yes and Yes/
Dye in Esophagus Lower [1, 26]: Yes/Yes
Dye in Esophagus Upper [1, 26]: Yes/Yes
Dye in Larynx [1, 26]: Yes
Dye in Lung [1, 26]: + and ++
Dye in Nasal Cavity [1, 26]: Yes
Dye in Nose Skin [1, 26]: Yes
Dye in Oral Cavity [1, 26]: Yes
Dye in Stomach [1, 26]: +
Dye in Trachea Lower [1, 26]: Yes/Yes
Dye in Trachea Upper [1, 26]: Yes/Yes
Dye in Esophagus Lower [1, 27]: Yes/Yes
Dye in Esophagus Upper [1, 27]: Yes/Yes
Dye in Larynx [1, 27]: Yes
Dye in Nasal Cavity [1, 27]: Yes
Dye in Nose Skin [1, 27]: Yes
Dye in Oral Cavity [1, 27]: Yes
Dye in Stomach [1, 27]: +
Dye retention in nasal passages and sinuses by position ([1]; mice, prone versus supine position): the converse is true for mice
Dye retention in nasal passages and sinuses by alertness ([1]; mouse, alert versus anesthetized): an anesthetized state is preferred
Dye reaching stomach and esophagus ([1]; optimal divided dose conditions for the mouse (Table 9)): essentially no dye reached the stomach and very little dye reached the esophagus
Dye retention in nasal passages and sinus cavities ([1]; series of low doses versus a single larger dose): more material can be retained in the nasal passages and sinus cavities than when a single larger dose is used
Dye retention in nasal passages and sinuses versus loss ([1]; when a lower dose is used): more dye is retained in the nasal passages and sinuses and less dye is lost to the esophagus, stomach, intestines and lungs
Dye retention in nasal passages and sinuses by alertness [2]: more dye is retained in the nasal passages and sinuses when administered to an alert chinchilla
Dye retention in nasal passages and sinuses by position [2]: more dye is retained in the nasal passages and sinuses in the chinchilla, when the dye is administered in the prone position than when administered in the supine position
